# Test results taken from PubChem BioAssay AID1320 (NMMLSC, 2008).
# The source made the active and inactive calls. How the calls were made is not given here.
# Molecular target: Bcl-2-related protein A1 (Homo sapiens) (UniProt Q16548)
# Experiment: Bfl-1/Bim complex disruptors – biochemical, multiplexed, bead-based flow cytometry, dose response (AID 1320); on percent span (inhibition): test concentration not given here
# Settings: Bim peptide-Bfl-1 binding, fluorescence
# Bcl-2-related protein A1 (Homo sapiens), sequence (Q16548 whole entry, looked up): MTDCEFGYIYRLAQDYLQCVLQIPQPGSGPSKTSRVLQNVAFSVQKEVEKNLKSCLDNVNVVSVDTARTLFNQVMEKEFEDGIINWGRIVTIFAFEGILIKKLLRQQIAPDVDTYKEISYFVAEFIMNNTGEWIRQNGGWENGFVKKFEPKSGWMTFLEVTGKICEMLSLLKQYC
row,SMILES,EC50
1,Cc1c(NC2=C(Cl)C(=O)N(c3ccccc3)C2=O)c(=O)n(-c2ccccc2)n1C,inactive

# Same assay, conditions: Bim peptide-Bfl-1 binding, fluorescence
row,SMILES,percent span (inhibition)
1,COc1ccc(NC(=O)/C(Cl)=C(/Cl)S(=O)Cc2ccccc2)cn1 (centres undefined),inactive
2,CCOc1cc(CNc2ccc(N(C)C)cc2)cc(Br)c1OCC(=O)NC(C)(C)C,inactive
3,CC1=C2C(CCS2(=O)=O)CC2(C1)C(=O)OC(C)(C)OC2=O (centres undefined),inactive
4,COc1ccc2oc(-c3ccccc3)c(C(=O)N3CCOCC3)c2c1,inactive
5,COc1ccc(CC(=O)Nc2ccc(C(=O)Nc3nccs3)cc2)cc1OC,inactive
6,OCCN1CCN(CCCc2c3c(cc4c2CCC4)CCC3)CC1,inactive
7,COC(=O)c1[nH]c2ccccc2c1NC(=O)c1ccccc1[N+](=O)[O-],inactive
8,CCN(CC)c1ccc(-c2nn3c(-c4cccnc4)nnc3s2)cc1,inactive
9,Cc1ccc(-n2c(CSc3nc(C)cc(C)n3)nnc2SCC(=O)NCc2ccco2)cc1,inactive
10,COc1cccc(/C=C2/SC(=O)N(C)C2=O)c1OCc1ccc(C(=O)O)cc1,inactive
11,CN(/N=C/c1ccncc1)C1=NS(=O)(=O)c2ccccc21,inactive
12,Cc1ccnc(NS(=O)(=O)c2ccc(NS(=O)(=O)c3cccs3)cc2)n1,inactive
13,Cc1nc2ccccc2n1CSc1ccccc1,inactive
14,CCOC(=O)c1c2c3c(cccc3[nH]c1=O)C(=O)c1ccccc1-2,inactive
15,N/C(=N\N=C/c1ccc(Br)cc1)N/N=C\c1ccc(Br)cc1,inactive
16,COc1cc2[nH]c(=S)nc(NCCCOC(C)C)c2cc1OC,inactive
17,CCOC(=O)N1CCC(c2cc(=O)n(-c3ccccc3)[nH]2)CC1,inactive
18,C/C(=N\NC(=O)Cn1nc(C)c([N+](=O)[O-])c1C)c1ccc(O)cc1,inactive
19,Cc1cc(N2CCN(C)CC2)nc2ccc(NC(=S)N3CCN(c4ccc(F)cc4)CC3)cc12,inactive
20,O=C(CSc1nnc(-c2ccccc2)c(-c2ccccc2)n1)N1CCc2ccccc21,inactive
21,Cc1cccc(-c2nnc3n2N=C(c2ccccc2)CS3)c1,inactive
22,Cc1ccc(-c2cc(C(=O)OCC(=O)N(C)C3CCS(=O)(=O)C3)c3ccccc3n2)o1 (centres undefined),inactive
23,COc1cccc(/C=N/NC(=O)c2cc3cc([N+](=O)[O-])ccc3s2)c1O,inactive
24,CNc1ccccc(C(=O)/C=C/c2ccccc2OC)c1=O,inactive
25,NC(=O)c1sc2nc3c(c(-c4ccco4)c2c1N)CCC3,inactive

row,SMILES,percent span (inhibition)
1,c1ccc(-c2nc(N3CCCCCC3)c3ccccc3n2)nc1,inactive
2,Cc1ccc(-c2cc(-c3ccccc3)c(C#N)c(N)n2)o1,inactive
3,COc1ccc(NC(=O)c2cc(-c3ccc(C)o3)nc3ccccc23)cc1OC,inactive
4,COc1ccccc1NC(=O)CSc1ncn(-c2ccccc2)n1,inactive
5,FC(F)(F)c1ccc2c(c1)C1C=CCC1C(c1ccncc1)N2 (centres undefined),inactive
6,C=CCn1c(C)cc(-c2csc(NC)n2)c1C,inactive
7,CCOC(=O)C1(CC/C(C)=N\NC(N)=O)CC(C)(C)OC1=O (centres undefined),inactive
8,c1ccc(Nc2nc(-c3ccncc3)cs2)cc1,inactive
9,O=C(NCc1ccccc1)C(=O)Nc1nc(C23CC4CC(CC(C4)C2)C3)cs1,inactive
10,NCC(c1ccccc1)c1c[nH]c2ccccc12 (centres undefined),inactive
11,Cc1cc(C)c[n+](-c2nc3ccccc3nc2C(=C=[N-])C#N)c1,inactive
12,Cc1ccc(S(=O)(=O)NC(=O)COc2ccccc2C)cc1,inactive
13,Cc1cc(N2CCN(C)CC2)nc2ccc(NC(=S)N3CCN(c4cccc(Cl)c4)CC3)cc12,inactive
14,Cc1occc1C(=O)NNC(=S)NCc1ccccc1,inactive
15,Cc1ccc(-c2cc(C(=O)Nc3cc(C(=O)O)ccc3C)c3ccccc3n2)cc1,inactive
16,Cc1cc(C)c(C)c(S(=O)(=O)N2CCN(CC(=O)NC(=O)NCc3ccccc3)CC2)c1C,inactive
17,COc1ccc(C2=Nn3c(nnc3-c3ccco3)SC2)cc1OC,inactive
18,Nc1cccc(-c2cn3cccnc3n2)c1,inactive
19,COc1ccc(NC(=O)Cc2c(F)cccc2Cl)c(OC)c1,inactive
20,Cc1ccc(C(=O)N/N=C2/NC(=O)CC(C(=O)Nc3ccccc3)S2)cc1 (centres undefined),inactive
21,COc1ccc(-c2nnc(SCC(=O)Nc3nc4ccccc4s3)n2C)cc1,inactive
22,O=C(CSc1ccc(-c2ccccc2)nn1)NCc1ccco1,inactive
23,CC(C)=C1C(=O)NN(c2ccc(C)c(Cl)c2)C1=O,inactive
24,CNc1nc2ccccc2n1/N=C/c1cccc(OC)c1OC,inactive
25,COCCNc1nc(=S)[nH]c2cc(OC)c(OC)cc12,inactive

row,SMILES,percent span (inhibition)
1,COc1ccc2nc(C)cc(SCC(=O)N/N=C/c3ccc(O)cc3O)c2c1,inactive
2,Fc1ccc(C2=Nn3c(Cc4ccccc4F)nnc3SC2)cc1,inactive
3,O=C(NCc1ccco1)C1CC2CCC1C2 (centres undefined),inactive
4,Cc1nc2ncccn2c1-c1csc(Nc2ccc(O)cc2)n1,inactive
5,CCOC(=O)c1cc2c(=O)n3cccc(C)c3nc2n(Cc2ccco2)c1=NC(=O)c1ccccc1,inactive
6,O=C(Cn1cncc1-c1ccc([N+](=O)[O-])cc1)Nc1ccccc1F,inactive
7,NNC(=O)COc1ccccc1F,inactive
8,COc1cc(/C=C2/NC(=O)N(Cc3ccccc3F)C2=O)cc(OC)c1O,inactive
9,O=C(Nc1ccncc1)c1cc2ccccc2o1,inactive
10,C=CCn1c(C)c(C(C)=O)c(N2CCOCC2)nc1=S,inactive
11,c1ccc(-c2nc(N3CCCCC3)nc3ccccc23)cc1,inactive
12,COc1ccc(N2C(=O)C(Cl)=C(Nc3ccccc3O)C2=O)cc1,inactive
13,O=C(N/N=C/c1cccnc1)c1cccc(S(=O)(=O)N2CCCC2)c1,inactive
14,COc1ccc(CN(C)CC(=O)NC(C)c2ccccc2)c(OC)c1 (centres undefined),inactive
15,CCCCc1ccc(NC(=S)NCc2ccc(OC)cc2)cc1,inactive
16,CSc1ccccc1NC(=O)CN(C)CC(=O)Nc1ccc(N2CCOCC2)cc1,inactive
17,COc1ccc(/C=C2\SC(=O)NC2=S)cc1OC,inactive
18,Cc1ccccc1-n1c(SCc2cccc(F)c2)nc2[nH]ncc2c1=O,inactive
19,O=C(Oc1ccc(-c2cnc3ccccc3n2)cc1)c1cccc([N+](=O)[O-])c1,inactive
20,O=C(Nc1n[nH]c(C(F)(F)F)n1)C1CC1,inactive
21,OCCC1CN(Cc2ccc3ncccc3c2)CCN1Cc1ccccc1 (centres undefined),inactive
22,COc1ccc(C2C(C#N)=C(C)NC3=C2S(=O)(=O)c2ccccc23)cc1 (centres undefined),inactive
23,CCOc1ccc(C(=O)Nc2nnc(NC(=S)Nc3ccccc3)s2)cc1,inactive
24,COc1cccc(-n2nnnc2SCC(=O)Nc2cccc(NC(C)=O)c2)c1,inactive
25,CC1(C)CC(NC(=O)COc2ccc([N+](=O)[O-])cc2)CC(C)(C)N1,inactive

row,SMILES,percent span (inhibition)
1,Cc1cc(C)cc(-n2c(C)nc3cc(C(=O)O)ccc32)c1,inactive
2,CCCCCCc1cc2cc(C(=O)Nc3ccccc3)c(=O)oc2cc1O,inactive
3,CC(C(=O)Nc1cc([N+](=O)[O-])ccc1Cl)N1CCN(c2ccc(O)cc2)CC1 (centres undefined),inactive
4,O=C1c2ccccc2-c2onc3ccc(NCCCn4ccnc4)c1c23,inactive
5,CCOc1ccccc1/C=N/NC(=O)CNC(=O)COc1ccccc1,inactive
6,Cc1cnnn1-c1ccc(C(=O)CCl)cc1,inactive
7,N#C/C(=C(/O)CN1CCN(c2ccccc2F)CC1)c1nc(-c2ccccc2)cs1,inactive
8,Cc1ccc(C)c(N2CCN(C(=S)Nc3ccc4nc(N5CCN(C)CC5)cc(C)c4c3)CC2)c1,inactive
9,COc1ccccc1Nc1nc(-c2c(C)nc3ncccn23)cs1,inactive
10,CN(CCCOc1ccccc1Br)Cc1ccccc1,inactive
11,Cc1ccc2c(C)c(C(=O)Nc3nnc(C)s3)oc2c1,inactive
12,Cc1ccnc(Nc2nc(-c3c(C)nc4sccn34)cs2)c1,inactive
13,CCNC(=O)N1c2ccc(OCC)cc2C(C)=CC1(C)C,inactive
14,c1csc(C2=Nn3c(nnc3-c3ccncc3)SC2)c1,inactive
15,CN(C)CCNC(=O)C(=O)C1C(=O)Nc2ccccc21 (centres undefined),inactive
16,O=C(C1=NN[C@@H]2C(=O)N(c3cccc(F)c3)C(=O)[C@H]12)c1ccc2ccccc2n1,inactive
17,Cc1ccc(NC2=C(Cl)C(=O)c3ccccc3C2=O)cc1,inactive
18,O=C(Cn1c(-c2ccccc2)noc1=O)N1CCC(Cc2ccccc2)CC1,inactive
19,O=S1(=O)N=C(N(CCO)/N=C/c2ccncc2)c2ccccc21,inactive
20,Cc1cc(C)n(CC(=O)N/N=C/c2cccc([N+](=O)[O-])c2)n1,inactive
21,Cc1ccc(NS(=O)(=O)c2cc(NC(=O)c3ccc4c(c3)NC(=O)CS4)ccc2C)c(C)c1,inactive
22,COc1ccc(N2CCN(C(CNS(=O)(=O)c3ccc4c(c3)OCCO4)c3ccco3)CC2)cc1 (centres undefined),inactive
23,COc1cccc(N2CC(C(=O)Nc3nnc(SCC(=O)c4ccccc4)s3)CC2=O)c1 (centres undefined),inactive
